Bridge positions count the residues as written; N and C are the ends. Square brackets hold non-standard residues; d marks the D form. Peptide text beside a SMILES is read from it. * marks the point of attachment. ξ: configuration not given here. Bip = N[C@@H](Cc1ccc(-c2ccccc2)cc1)C(=O)O; Phe(3-Me) = Cc1cccc(C[C@H](N)C(=O)O)c1; Phe(4-F) = N[C@@H](Cc1ccc(F)cc1)C(=O)O; Cha = N[C@@H](CC1CCCCC1)C(=O)O; Ile(3ξ) = CCC(C)[C@H](N)C(=O)O; Thr(3ξ) = CC(O)[C@H](N)C(=O)O; Carboxymethyl = O=C(O)C*; Orn = NCCC[C@H](N)C(=O)O; Aun = NCCCCCCCCCCC(=O)O; Dab = NCC[C@H](N)C(=O)O; AEEA = NCCOCCOCC(=O)O

T1 sequence (Q15116 25-288): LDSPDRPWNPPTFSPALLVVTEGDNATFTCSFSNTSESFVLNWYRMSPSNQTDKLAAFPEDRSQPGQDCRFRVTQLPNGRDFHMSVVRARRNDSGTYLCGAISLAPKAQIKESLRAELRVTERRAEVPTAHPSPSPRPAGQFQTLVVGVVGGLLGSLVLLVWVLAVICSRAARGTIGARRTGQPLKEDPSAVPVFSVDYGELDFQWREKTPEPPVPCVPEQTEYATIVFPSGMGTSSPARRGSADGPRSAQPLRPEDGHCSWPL

The test has as its target T1, PD-1/PD-L1 interaction (PE-labeled human PD-L1-Ig binding to Jurkat cell line over-expressing human PD-1) (Homo sapiens, UniProt Q15116).
T1 construct: expressed in transfected cells; host or cells: Jurkat
Nature of the test: Jurkat-PD-1 Cell Binding High-Content Screening Assay (CBA). The settings on record: Jurkat cell line over-expressing human PD-1; PE-labeled PD-L1-Ig 20 nM final; read-out: Jurkat hPD1-PDL1 IC50. Type of test: cell-based. The essentials: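 First, compound is added to PD-1-expressing Jurkat cells in serum-containing DMEM and left 2 h at 37° C. Next, PE-conjugated PD-L1-Ig is introduced at 20 nM final concentration for 1 hour. Finally, cells are fixed in 4% paraformaldehyde with Hoechst 33342, washed and imaged.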
For the compound `Cc1cccc(C[C@@H]2NC(=O)[C@H](CC(=O)O)NC(=O)[C@H](Cc3ccc(OCC(=O)O)cc3)NC(=O)[C@H](Cc3ccc(F)cc3)NC(=O)CSC[C@@H](C(=O)N[C@@H](CCN)C(=O)NCCOCCOCC(=O)NCCCCCCCCCCC(=O)O)NC(=O)[C@H](CC(=O)O)NC(=O)[C@H](C(C)C)NC(=O)[C@H](CC3CCCCC3)NC(=O)[C@H](CCN)NC(=O)[C@@H](CC(C)C)NC(=O)[C@H](CCCN)NC(=O)[C@H](Cc3ccc(OCC(=O)O)cc3)NC(=O)[C@H](Cc3ccc(-c4ccccc4)cc3)NC(=O)[C@H](Cc3ccc(OCC(=O)O)cc3)NC2=O)c1` [Compound 3799] ({CH2CO}-[Phe(4-F)]Y(Carboxymethyl)D[Phe(3-Me)]Y(Carboxymethyl)[Bip]Y(Carboxymethyl)[Orn][dL][Dab][Cha]VDC[Dab][AEEA][Aun]-OH; thioether N-14), the IC50 came out at 11.1 nM.

For the compound `Cc1cccc(C[C@@H]2NC(=O)[C@H](CC(=O)O)NC(=O)[C@H](Cc3ccc(OCC(=O)O)cc3)NC(=O)[C@H](Cc3ccc(F)cc3)NC(=O)CSC[C@@H](C(=O)N[C@@H](CCN)C(=O)NCCOCCOCC(=O)NCCCCCCCCCCC(=O)O)NC(=O)[C@H](CCC(=O)O)NC(=O)[C@H](C(C)C)NC(=O)[C@H](CC3CCCCC3)NC(=O)[C@H](CCN)NC(=O)[C@@H](CC(C)C)NC(=O)[C@H](CCCN)NC(=O)[C@H](Cc3ccc(OCC(=O)O)cc3)NC(=O)[C@H](Cc3ccc(-c4ccccc4)cc3)NC(=O)[C@H](Cc3ccc(OCC(=O)O)cc3)NC2=O)c1` [Compound 3800] ({CH2CO}-[Phe(4-F)]Y(Carboxymethyl)D[Phe(3-Me)]Y(Carboxymethyl)[Bip]Y(Carboxymethyl)[Orn][dL][Dab][Cha]VEC[Dab][AEEA][Aun]-OH; thioether N-14), the half-inhibitory concentration (IC50) turned out to be 12.1 nM.

Take `Cc1cccc(C[C@@H]2NC(=O)[C@H](CC(=O)O)NC(=O)[C@H](Cc3ccc(OCC(=O)O)cc3)NC(=O)[C@H](CCN)NC(=O)CSC[C@@H](C(=O)N[C@@H](CCN)C(=O)NCCOCCOCC(=O)NCCCCCCCCCCC(=O)O)NC(=O)[C@H](CC(=O)O)NC(=O)[C@H](C(C)C)NC(=O)[C@H](CC3CCCCC3)NC(=O)[C@H](CCN)NC(=O)[C@@H](CC(C)C)NC(=O)[C@H](CCCN)NC(=O)[C@H](Cc3ccc(OCC(=O)O)cc3)NC(=O)[C@H](Cc3ccc(-c4ccccc4)cc3)NC(=O)[C@H](Cc3ccc(OCC(=O)O)cc3)NC2=O)c1` [Compound 3801] ({CH2CO}-[Dab]Y(Carboxymethyl)D[Phe(3-Me)]Y(Carboxymethyl)[Bip]Y(Carboxymethyl)[Orn][dL][Dab][Cha]VDC[Dab][AEEA][Aun]-OH; thioether N-14): the IC50 stood at 2.5 nM.

For `CCC(C)[C@@H]1NC(=O)[C@H](Cc2ccc(-c3ccccc3)cc2)NC(=O)[C@H](C(C)C)NC(=O)[C@H](Cc2c[nH]c3ccccc23)NC(=O)[C@H](CC(=O)O)NC(=O)[C@H](Cc2ccc(OCC(=O)O)cc2)NC(=O)[C@H](Cc2ccc(F)cc2)NC(=O)CSC[C@@H](C(=O)N[C@@H](CCN)C(=O)NCCOCCOCC(=O)NCCCCCCCCCCC(=O)O)NC(=O)[C@H](CC(=O)O)NC(=O)[C@H](C(C)O)NC(=O)[C@H](CC2CCCCC2)NC(=O)[C@H](CCN)NC(=O)[C@@H](CC(C)C)NC(=O)[C@H](CCCN)NC1=O` (stereo partly drawn) [Compound 3802] ({CH2CO}-[Phe(4-F)]Y(Carboxymethyl)DWV[Bip][Ile(3ξ)][Orn][dL][Dab][Cha][Thr(3ξ)]DC[Dab][AEEA][Aun]-OH; thioether N-14), the concentration for half-maximal inhibition (IC50) worked out at 36.6 nM.

One may read the IC50 as the concentration at which inhibition is half-maximal.

(Values after patent US20260022142A1, “MACROCYCLIC IMMUNOMODULATORS” (Bristol-Myers Squibb Company, priority 2022, published 2026).)
